What was measured:
IL-6 cytokine = assay: Secreted IL-6 in LPS-treated human primary glial cells (MSD ELISA); format: cell-based; details: LPS 6 h, then purine derivative 10 μM for 18 h
Procedure: For assessing the cytokine production, human primary glial cells were grown until confluent on coated collagen 12-well plates. Cells were serum-starved in glial serum-free medium for 2 h and treated with LPS for 6 h before treatment with purine derivatives (10 μM) for an additional 18 h. Supernatants were harvested and secreted IL-6 cytokine was measured by ELISA by the mean of the Meso Scale Discovery (MSD) technology. Briefly, a 96-well plate having 1 spot pre-coated with the corresponding antibody is provided by MSD Technology. Before adding the samples, a first saturation step is required. Once the plate is saturated and washed, 25 μL of sample (or calibrators) per well are loaded and incubated for 1 hour. Then the plate is washed and incubated with 25 μL of the Detection Antibody solution (MSD SULFO-TAG) for 1 hour. At the end of the incubation, the plate is washed and then a chemical solution (Read buffer 1×) is added allowing electrochemiluminescence. After a short incubation (5 min) at room temperature, the plate is read on the QUICK Plex SQ120. The instrument measures the intensity of the light electrochemiluminescence.

p-Tau (Thr212) = assay: p-Tau (Thr212)/total Tau in rat cortical neurons (western-blot); format: cell-based; details: purine derivative 10 μM (A100), 18 h
Procedure: Cells were lysed in freshly prepared lysis buffer containing in mM: Tris-HCl 50, EDTA 2, EGTA 2, NaCl 100, SDS 0.2%, Triton X-100 1%, proteases inhibitors (Roche Protease Inhibitor Cocktail #04693116001), phosphatases inhibitors (in mM: ammonium molybdate 0.1, β-glycerophosphate 20, NaF 50, Na-pyrophosphate 10, Orthovanadate 1). Protein concentration was measured by the Bradford assay and Laemmli buffer was added to each lysate. Proteins (10 μg per lane) were resolved on 12% Nu-PAGE (LifeTechonoliges #NP0342BOX) using MOPS SDS running buffer and transferred on Immobilon-FL PVDF membrane (Millipore #IPFL00010). Membranes were blocked one hour in TBS Tween20 0.1% BSA 5% at room temperature. Primary antibodies were incubated O/N at 4° C. and detected by Alexa 488 conjugated secondary antibodies (Life Techonologies #A11034 and A11029) diluted 1:1.000 in TBS Tween20 0.05% and 1% BSA. The antibodies specific for pThr212-Tau (Abcam #ab4842), pThr181-Tau (AbCam #ab75679), Tau (Millipore #MAB361), APP (Millipore #07-667) and Actin (Millipore #MAB1501) were diluted in TBS Tween20 0.05% and 1% BSA. Fluorescent signal was visualized with the VersaDoc™ Imaging System (Bio-Rad Laboratories) and quantified with Quantity One® Analysis Software. Grey levels measured for bands of interest were normalized to the corresponding actin bands.
For assessing the protein Tau's phosphorylation, the culture media of rat cortical neurons were replaced by incubation medium containing purine derivatives at 10 μM (A100) or vehicle (0.1% DMSO; Control). After 18 h incubation p-Tau (Thr212) and total Tau were quantified in the cellular extracts by western-blot.

Compound	Anti-inflammatory Compounds (secreted IL-6) (IL-6 cytokine)	Attenuation of P-Tau/Tau ratio (p-Tau (Thr212))
CC[C@H](CO)Nc1nc(N(C)Cc2ccccc2)c2ncn(C(C)C)c2n1 [Aftin-4]	+(>1 μM) (“+” means that the tested compound shows an anti-inflammatory and/or attenuation of Tau's phosphorylation property with a concentration higher than 1 μM)	
CCN(CC)CCNc1nc(N(CC)Cc2ccccc2)c2ncn(C3CCCC3)c2n1 [Compound 22]	+(>1 μM) (“+” means that the tested compound shows an anti-inflammatory and/or attenuation of Tau's phosphorylation property with a concentration higher than 1 μM)	+(>1 μM) (“+” means that the tested compound shows an anti-inflammatory and/or attenuation of Tau's phosphorylation property with a concentration higher than 1 μM)
CC[C@H](CO)Nc1nc(NCc2ccccc2)c2ncn(C(C)C)c2n1 [Roscovitine, (R)-roscovitine, reference compound]	+(>1 μM) (“+” means that the tested compound shows an anti-inflammatory and/or attenuation of Tau's phosphorylation property with a concentration higher than 1 μM)	
CCN(Cc1ccccc1)c1nc(N[C@@H](CO)C(C)C)nc2c1ncn2C1CCCC1 [Compound 15]	+(>1 μM) (“+” means that the tested compound shows an anti-inflammatory and/or attenuation of Tau's phosphorylation property with a concentration higher than 1 μM)	+(>1 μM) (“+” means that the tested compound shows an anti-inflammatory and/or attenuation of Tau's phosphorylation property with a concentration higher than 1 μM)
CC[C@H](CO)Nc1nc(N(CC)Cc2ccccc2)c2ncn(C(C)C)c2n1 [Compound 13]	+(>1 μM) (“+” means that the tested compound shows an anti-inflammatory and/or attenuation of Tau's phosphorylation property with a concentration higher than 1 μM)	+(>1 μM) (“+” means that the tested compound shows an anti-inflammatory and/or attenuation of Tau's phosphorylation property with a concentration higher than 1 μM)
CC[C@H](CO)Nc1nc(N(C)Cc2ccccc2)c2ncn(C3CCCC3)c2n1 [Compound 14]	+(>1 μM) (“+” means that the tested compound shows an anti-inflammatory and/or attenuation of Tau's phosphorylation property with a concentration higher than 1 μM)	+(>1 μM) (“+” means that the tested compound shows an anti-inflammatory and/or attenuation of Tau's phosphorylation property with a concentration higher than 1 μM)
CC[C@H](CO)Nc1nc(OCc2ccccc2)c2ncn(C(C)C)c2n1 [Compound 31]	+(>1 μM) (“+” means that the tested compound shows an anti-inflammatory and/or attenuation of Tau's phosphorylation property with a concentration higher than 1 μM)	+(>1 μM) (“+” means that the tested compound shows an anti-inflammatory and/or attenuation of Tau's phosphorylation property with a concentration higher than 1 μM)
CC[C@@H](CO)Nc1nc(N(C)c2ccccc2)c2ncn(C(C)C)c2n1 [Compound 26]	+(>1 μM) (“+” means that the tested compound shows an anti-inflammatory and/or attenuation of Tau's phosphorylation property with a concentration higher than 1 μM)	
CCCN(Cc1ccccc1)c1nc(N[C@H](CC)CO)nc2c1ncn2C(C)C [Compound 20]	+(>1 μM) (“+” means that the tested compound shows an anti-inflammatory and/or attenuation of Tau's phosphorylation property with a concentration higher than 1 μM)	+(>1 μM) (“+” means that the tested compound shows an anti-inflammatory and/or attenuation of Tau's phosphorylation property with a concentration higher than 1 μM)

From patent US11472807B2, “Purine derivatives for use as medicament and for use in treating neurodegenerative or neuro-inflammatory disorders” (COMMISSARIAT À L'ENERGIE ATOMIQUE ET AUX ENERGIES …, priority 2017, dated 2022)
